Where “and” joins values, the source holds several entries; their conditions need not be identical. Equal values may be shown once.
How the values were obtained:
[1] = test system: occlusive thrombus in left circumflex coronary artery (LCCA); test: Anesthetized canine model of coronary thrombosis (anodal current stimulation of the LCCA); type: in vivo, dog
Experimental: Sixty-six mongrel dogs of either sex weighing between 14 and 26 kg were anesthetized by intravenous administration of pentobarbital sodium solution (30 mg/kg). A supplemental dose of the anesthetic (65 to 130 mg) was administered as required. The dogs were endotracheally intubated and placed on a respirator (Biological Research Apparatus, Comerio-Varese, Italy) with the stroke volume adjusted to 20 ml/kg and a frequency of 12 breaths/minute. Peripheral arterial blood pressure was monitored with a pressure transducer (Micron Instruments, Simi Valley, Calif.) connected to a catheter placed in the right femoral artery. A catheter was inserted into the right femoral vein for withdrawing blood samples and another was inserted into the left jugular vein for administering intravenous fluids. A left thoracotomy was performed in the fifth intercostal space and the heart was suspended in a pericardial cradle. A 2 to 3-cm segment of the left circumflex coronary artery (LCCA) was isolated distal to the first diagonal branch. The small intervening coronary branches over the isolated segment were ligated. The artery was instrumented from proximal to distal with an ultrasonic flow probe, a stimulation electrode, and a Goldblatt clamp. The flow probe was connected to a Doppler flow meter (Crystal Biotech, Hopkinton, Mass.) in order to monitor the mean and the phasic LCCA blood flow velocities. The stimulation electrode and its placement in the LCCA and the methodology to induce an occlusive coronary thrombus are described in detail in Mickelson et al. Circulation, 1990; 81:617-627; Shebuski et al., Circulation, 1990; 82:169-177; and Tschopp et al., Coronary Artery Des., 1993; 4:809-817. Briefly, the needle tip of the electrode was inserted into the LCCA, ensuring its contact with the intraluminal surface of the vessel just under the Goldblatt clamp. The clamp was adjusted to reduce the peak reactive hyperemia following a 10-second period of total occlusion, without affecting the baseline mean LCCA blood flow velocity. Continuous recordings of blood pressure and LCCA blood flow velocity (mean and phasic) were obtained on a multichannel recorder (Gould Inc., Cleveland, Ohio).
Approximately 30 minutes after the preparation of the dogs, the study was continued by the administration of one of the treatments presented in Table 2.
The 0.6×SCa, 0.5×SCa and 0.4×SCa doses in Table 2 represent the reduced doses of the highest dose of SCa tested. Each dog was utilized only once. At 30 minutes, the stimulation electrode was then connected in series with a 12 K Ohms-112 K Ohms variable resistor to the positive terminal of a 9-V battery. The electrical circuit was completed by securing a needle electrode into a subcutaneous site and to the negative terminal of the battery. The anodal current delivered to the tip of the stimulation electrode was monitored and maintained at 250 μA. The number and the frequency of cyclic flow variations (CFV) that preceded the formation of an occlusive thrombus were recorded. CFV were observed as spontaneous shifts in mean and phasic LCCA blood flow velocity, with the sudden return of these variables to baseline. Proper positioning of the electrode in the LCCA was confirmed by visual inspection at the end of the experiment. Each experiment lasted for 180 minutes of anodal current unless the dog died after an occlusive thrombus was formed.

[2] = test system: Dog PRP platelet aggregation; test: In-Vitro Platelet Aggregation in PRP (ADP-induced); type: cell-based; conditions: Canis lupus familiaris; ADP 50 um final concentration, dog platelet-rich plasma
Experimental: Healthy male or female dogs were fasted for 8 hours prior to drawing blood; then 30 ml whole blood was collected using a butterfly needle and 30 cc plastic syringe with 3 ml of 0.129 M buffered sodium citrate (3.8%). The syringe was rotated carefully as blood was drawn to mix the citrate. Platelet-rich plasma (PRP) was prepared by centrifugation at 975×g for 3.17 minutes at room temperature allowing the centrifuge to coast to a stop without braking. The PRP was removed from the blood with a plastic pipette and placed in a plastic capped, 50 mL Corning conical sterile centrifuge tube which was held at room temperature. Platelet poor plasma (PPP) was prepared by centrifuging the remaining blood at 2000×g for 15 minutes at room temperature allowing the centrifuge to coast to a stop without braking. The PRP was adjusted with PPP to a count of 2-3×10^8 platelets per mL. 400 uL of the PRP preparation and 50 uL of the compounds solution to be tested or saline were preincubated for 1 minute at 37° C. in an aggregometer (BioData, Horsham, Pa.). 50 uL of adenosine 5′ diphosphate (ADP) (50 um final concentration) was added to the cuvettes and the aggregation was monitored for 1 minute. All compounds are tested in duplicate. Results are calculated as follows: Percent of control=[(maximal OD minus initial OD of compound) divided by (maximal OD minus initial OD of control saline)]×100. […]

[3] = test system: collagen-induced platelet aggregation; test: Ex vivo collagen-induced platelet aggregation in PRP of treated dogs; design: species or system dog; conditions: mean±SEM
Experimental: Peripheral venous blood was collected into citrated Vacutainer tubes (containing 0.3 ml of 3.8% sodium citrate solution) and platelet-rich plasma (PRP) was obtained by centrifugation (model Technospin R, Sorvall Instruments, DuPont, Wilmington, Del.) the blood at 266×g for 6 minutes at 24° C. Platelet-poor plasma (PPP) was obtained by further centrifugation at 2000×g for 10 minutes at 24° C. Samples were assayed on an aggregometer (model PAP-4, Bio/Data Corporation, Hatboro, Pa.) with PPP as the blank. The aggregations were performed by adding 50 μl of collagen ([…] final concentration) to 450 μl of PRP and measuring aggregation for 3 minutes. Blood samples used in platelet aggregation were collected at the following time periods: before treatment administration (baseline), immediately before anodal stimulation (at 30 minutes), at 60 minutes, then at 1-hour intervals to the end of experimentation. The blood samples at 60, 120 and 180 minutes were averaged (since the three blood samples yielded similar data) to obtain the steady-state platelet inhibition value for all comparisons except for saline and heparin (since no 120-minute sample was taken, 60 and 180 minute samples were used). Results are expressed as percent inhibition and represent steady-state conditions.

[4] = Bioassay for SCa plasma levels; type: in vivo; conditions: steady state, dog plasma, mean ± SEM
Experimental: SCa plasma levels were determined from the blood samples used for platelet aggregation. Plasma levels of SCa were measured using a modification of a bioassay method previously described in Salyers et al., Throm. Res., 1994, 75:409-417. The bioassay used plasma from treated dogs as the source of inhibitor to be tested in vitro against normal (naive) platelets from donor dogs. Briefly, PRP from non-treated dogs was added to wells containing plasma samples from treated dogs in a 96 well microtiter plate. ADP (20 μM) was added to the platelet suspension in each well to induce aggregation. Optical density at 405 nanometers was measured on all wells simultaneously in a platereader (Thermomax microplate reader, Molecular Devices, Menlo Park, Calif.). The results were quantified by comparison to a standard inhibition curve prepared in plasma using known amounts of SCa.

[5] = no SCa, ASA 2.8 mg/kg iv bolus, heparin 200 units/kg bolus then 1000 units/hour
[6] = no SCa, ASA 2.8 mg/kg iv bolus, heparin 200 units/kg bolus then 1000 units/hour, mean±SEM, n=6
[7] = no SCa, ASA 2.8 mg/kg iv bolus, heparin 200 units/kg bolus then 1000 units/hourly, mean ± SEM, n=6/group
[8] = no SCa, ASA 2.8 mg/kg iv bolus, heparin 200 units/kg bolus then 1000 units/hourly, n=6/group
[9] = 0.6 × SCa (0.52//0.23 μg/kg/min iv), mean±SEM, n=6
[10] = 0.6 × SCa (0.52//0.23 μg/kg/min iv)
[11] = 1 × SCa (0.87//0.39 μg/kg/min iv)

CC(=O)Oc1ccccc1C(=O)O [ASA, acetylsalicyclic acid, reference compound]
occurrence of thrombosis (occlusive thrombus) in dogs ([1]; no SCa, ASA 2.8 mg/kg iv bolus, 180 minutes of anodal current, n=6): did occur before the completion of the 180 minutes of current in all of the dogs | effectiveness in the thrombosis model [1, 5]: not effective | time to zero flow [1, 6]: 64 ± 7 min | Mean CFV/Minute (×100) [1, 7]: 6 ± 2 CFV/Minute (×100) | Number of Dogs with CFV [1, 8]: 6/6

C#C[C@H](CC(=O)O)NC(=O)CCC(=O)Nc1ccc(C(=N)N)cc1 [Example 2]
IC50 [2]: 70 nM | dogs with occlusive thrombus / LCCA thrombosis ([1]; 0.5 × SCa (0.425//0.20 μg/kg/min iv) alone or with ASA and/or heparin, 180 minutes of anodal current, n=6/group): 4 of 6 | Mean CFV/Minute (×100) ([1]; 0.5 × SCa (0.425//0.20 μg/kg/min iv) alone or with ASA and/or heparin, mean ± SEM, n=6/group): 5 ± 1 CFV/Minute (×100) | Number of Dogs with CFV ([1]; 0.5 × SCa (0.425//0.20 μg/kg/min iv) alone or with ASA and/or heparin, n=6/group): 6/6 | time to zero flow ([1]; 0.5 × SCa (0.425//0.20 μg/kg/min iv), mean±SEM, n=6): 130 ± 22 min | Mean CFV/Minute (×100) [1, 9]: 3 ± 1 CFV/Minute (×100) | time to zero flow [1, 9]: 158 ± 15 min | Number of Dogs with CFV ([1]; 0.6 × SCa (0.52//0.23 μg/kg/min iv), n=6): 4/6 | occurrence of thrombosis (occlusive thrombus) in dogs ([1]; 1 × SCa (0.87//0.39 μg/kg/min iv), 180 minutes of anodal current, n=6): did not occur in any of the dogs | Mean CFV/Minute (×100) ([1]; 1 × SCa (0.87//0.39 μg/kg/min iv), during anodal stimulation of the LCCA, mean ± SEM, n=6): 0.7 ± 0.7 CFV/Minute (×100) | Number of Dogs with CFV ([1]; 1 × SCa (0.87//0.39 μg/kg/min iv), n=6, listed as SCa): 1 of 6 and 1/6 | time to zero flow ([1]; 1 × SCa (0.87//0.39 μg/kg/min iv, loading 15 min // maintenance), 180 min = end of protocol with no occlusion, mean±SEM, n=6): 180 ± 0 min | steady-state inhibition of platelet aggregation (Percent Inhibition) ([3]; 0.5 × SCa (0.425//0.20 μg/kg/min iv) alone or with ASA 2.8 mg/kg bolus and/or heparin 200 units/kg + 1000 units/hour): 70±4% | steady-state inhibition of platelet aggregation (Percent Inhibition) [3, 10]: 83±3% | steady-state inhibition of platelet aggregation (Percent Inhibition) [3, 11]: 92±5% | Plasma Level of SCa ([4]; 0.5 × SCa (0.425//0.20 μg/kg/min iv)): 35 ± 8 ng/mL | Plasma Level of SCa [4, 10]: 48 ± 7 ng/mL | Plasma Level of SCa [4, 11]: 57 ± 4 ng/mL

C#C[C@H](CC(=O)OCC)NC(=O)CCC(=O)Nc1ccc(C(=N)N)cc1 [Example 1, Ethyl 3S-[[4-[[4-(aminoiminomethyl)phenyl]-amino]-1,4-dioxobutyl]amino]-4-pentynoate]
IC50 [2]: 4600 nM

Heparin [reference compound]
effectiveness in the thrombosis model [1, 5]: not effective | time to zero flow [1, 6]: 114 ± 16 min | Mean CFV/Minute (×100) [1, 7]: 5 ± 1 CFV/Minute (×100) | Number of Dogs with CFV [1, 8]: 6/6 | steady-state inhibition of platelet aggregation [3, 5]: 13±2%
